Test results: patent US12084462B2, “Spiro bicyclic inhibitors of menin-MLL interaction” (Janssen Pharmaceutica NV, priority 2016, dated 2024)
Values joined by “and” are separate entries in the source; they are usually repeats but may differ in a detail not shown here. Identical values can stand only once. Like-named read-outs stand apart in the source and are kept apart here.

Experiments:
menin = target: T1, menin (Homo sapiens, UniProt O00255, T541A); experiment: Menin/MLL fluorescence polarization (FP) assay; assay type: binding
T1 sequence (O00255 with tags, fused parts or gaps T541A): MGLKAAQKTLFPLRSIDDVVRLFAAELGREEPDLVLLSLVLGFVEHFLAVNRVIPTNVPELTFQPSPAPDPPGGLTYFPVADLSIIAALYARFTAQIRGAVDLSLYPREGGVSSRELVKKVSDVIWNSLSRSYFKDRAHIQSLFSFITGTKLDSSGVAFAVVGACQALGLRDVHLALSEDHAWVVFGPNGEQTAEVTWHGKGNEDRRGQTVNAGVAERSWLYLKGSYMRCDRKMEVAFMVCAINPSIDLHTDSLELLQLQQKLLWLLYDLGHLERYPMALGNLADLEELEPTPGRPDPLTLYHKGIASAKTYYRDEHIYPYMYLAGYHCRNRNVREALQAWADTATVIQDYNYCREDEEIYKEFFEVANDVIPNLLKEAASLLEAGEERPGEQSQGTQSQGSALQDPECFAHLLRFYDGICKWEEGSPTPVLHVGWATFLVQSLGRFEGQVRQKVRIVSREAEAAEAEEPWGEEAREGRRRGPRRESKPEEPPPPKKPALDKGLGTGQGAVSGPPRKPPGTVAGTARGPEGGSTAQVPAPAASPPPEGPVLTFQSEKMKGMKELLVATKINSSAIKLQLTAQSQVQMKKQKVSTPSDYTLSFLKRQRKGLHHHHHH
Method: 1) Menin/MLL Fluorescence Polarization Assay
To a non-surface binding, black 384-well microtiter plate was added 50 nL 160× test compound in DMSO and 4 μL 2× menin in assay buffer (40 mM Tris·HCl, pH 7.5, 50 mM NaCl, 1 mM DTT and 0.001% Tween 20). After incubation of test compound and menin for 10 min at ambient temperature, 4 μL 2×FITC-MBM1 peptide (FITC-β-alanine-SARWRFPARPGT-NH2 (SEQ ID NO: 2)) in assay buffer was added, the microtiter plate centrifuged at 1000 rpm for 1 min and the assay mixtures incubated for 15 min at ambient temperature. The relative amount of menin·FITC-MBM1 complex present in an assay mixture is determined by measuring the fluorescence polarization (FP) of the FITC label with a BMG Pherastar plate reader (ex. 485 nm/em. 520 nm) at ambient temperature. The final concentrations of reagents in the binding assay are 100 nM menin, 5 nM FITC-MBM1 peptide and 0.625% DMSO in assay buffer. Dose-response titrations of test compounds are conducted using an 11 point, three-fold serial dilution scheme, starting at 31 μM.
Compound potencies were determined by first calculating % inhibition at each compound concentration according to equation 1: % inhibition=((HC−LC)−(FP^compound−LC))/(HC−LC))*100 (Eqn 1)
Where LC and HC are the FP values of the assay in the presence or absence of a saturating concentration of a compound that competes with FITC-MBM1 for binding to menin, and FP^compound is the measured FP value in the presence of the test compound. HC and LC FP values represent an average of at least 16 replicates per plate. […] 2) Proliferation Assay

MV-4-11 = experiment: Proliferation assay (spheroid assay) MV-4-11; assay type: cell-based, human
How it was run: (§1)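 Cells grown as spheroids in ultra-low attachment round-bottom wells with compound at varied concentrations (0.3% DMSO) for 8 d at 37 °C; confluence imaged every 4 h. AUC of confluence over time (t=0 baseline) expressed as % of vehicle control; absolute IC50 from nonlinear least-squares fit.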

MOLM14 = experiment: Proliferation assay (spheroid assay) MOLM14; assay type: cell-based, human
How it was run: as §1

K562 = experiment: Proliferation assay (spheroid assay) K562, control cell line; assay type: cell-based; details: Homo sapiens
Method: (§2) The anti-proliferative effect of menin/MLL protein/protein interaction inhibitor test compounds was assessed in human leukemia cell lines. The cell lines MV-4-11 and MOLM14 harbor MLL translocations and express the MLL fusion proteins MLL-AF4 and MLL-AF9, respectively, as well as the wildtype protein from the second allele. […] K562 and KG1 were used as a control cell lines containing two MLL wildtype alleles in order to exclude compounds that display general cytotoxic effects.
(§3) MV-4-11 and MOLM14 were cultured in RPMI-1640 (Sigma Aldrich) supplemented with 10% fetal bovine serum (HyClone), 2 mM L-glutamine (Sigma Aldrich) and 50 μg/ml gentamycin (Gibco). K562 were propagated in RPMI-1640 (Sigma Aldrich) supplemented with 20% fetal bovine serum (HyClone), 2 mM L-glutamine (Sigma Aldrich) and 50 μg/ml gentamycin (Gibco). KG1 were cultured in Iscove's MDM (Gibco) supplemented with 20% fetal bovine serum (HyClone), 2 mM L-glutamine (Sigma Aldrich) and 50 μg/ml gentamycin (Gibco).
(§4) In order to assess the anti-proliferative effects, 1,500 MV-4-11, 300 MOLM14, 750 K562 or 1,300 KG1 cells were seeded in 200 μl media per well in 96-well round bottom, ultra-low attachment plates (Costar, catalogue number 7007). Cell seeding numbers were chosen based on growth curves to ensure linear growth throughout the experiment. Test compounds were added at different concentrations and the DMSO content was normalized to 0.3%. Cells were incubated for 8 d at 37° C. and 5% CO2. Spheroid like growth was monitored in real-time by live-cell imaging (IncuCyteZOOM, Essenbio, 4× objective) acquiring one image every four hours for 8 d. Confluence (%) as a measure of spheroid size was determined using an integrated analysis tool.
(§5) In order to determine the cumulative effect of the test compounds over time, the area under the curve (AUC) in a plot of confluence against time was calculated. Confluence at the beginning of the experiment (t=0) was used as baseline for the AUC calculation.
(§6) Absolute IC50 values were calculated according to the following procedure: % Control=(AUC sample/AUC control)*100 AUC control=mean AUC of control values (cells without compound/DMSO as vehicle control)
(§7) A non-linear curve fit was applied using the least squares (ordinary) fit method to the plot of % control versus compound concentration. Based on this, the absolute IC50 value (half maximal inhibitory concentration of the test compound causing an anti-proliferative effect of 50% relative to the vehicle control) was calculated.

KG1 = experiment: Proliferation assay (spheroid assay) KG1, control cell line; assay type: cell-based; details: Homo sapiens
Method: as §2, §3, §4, §5, §6, §7

[1] = Homo sapiens, MV4-11, MV-4-11, averaged values, read-out: Spheroid assay MV-4-11 (IC50 (μM))
[2] = Homo sapiens, MOLM-14, MOLM14, averaged values, read-out: Spheroid assay MOLM14 (IC50 (μM))
[3] = K562 control cell line, averaged values, read-out: Spheroid assay K562 (IC50 (μM))
[4] = KG-1, KG1 control cell line, averaged values, read-out: Spheroid assay KG1 (IC50 (μM))
[5] = 100 nM menin, 5 nM FITC-MBM1 peptide, individual measurements (not averaged), read-out: (1) Menin FP assay (IC50 (μM))
[6] = MOLM14 (MLL-AF9), 8 d, absolute IC50 from AUC of confluence, individual measurements (not averaged), read-out: (2) Spheroid assay MOLM14 (IC50 (μM))
[7] = KG-1, 192 h, KG1 (MLL wildtype control), 8 d, absolute IC50 from AUC of confluence, individual measurements (not averaged), read-out: (2) Spheroid assay KG1 (IC50 (μM))

IC50 (MV-4-11; [1]) [µM] | IC50 (MOLM14; [2]) [µM] | IC50 (K562; [3]) [µM] | SMILES | IC50 (KG1; [4]) [µM] | further results
0.65 | 1.7 | > 15 | CC(C)[C@H](C1CCOCC1)N1CC2(CCN(c3ncnc4sc(CC(F)(F)F)cc34)C2)C1 [Compound 193] | > 15 | –
0.78 | 1.9 | – | CC(C)C(Cc1ccccc1)N1CC2(CCN(c3ncnc4sc(CC(F)(F)F)cc34)C2)C1 (stereo not shown) [Compound 182] | > 15 | –
0.4 | 0.96 | – | CC(C)C(CC1CCN(C)CC1)N1CC2(CCN(c3ncnc4sc(CC(F)(F)F)cc34)C2)C1 (stereo not shown) [Compound 316] | > 3.7 | –
0.64 | 4 | – | CC(C)C(c1cnn(CCO)c1)N1CC2(CCN(c3ncnc4sc(CC(F)(F)F)cc34)C2)C1 (stereo not shown) [Compound 62] | > 15 | –
0.76 | 1.4 | – | CC(C)C(c1cnn(C(C)C)c1)N1CC2(CCN(c3ncnc4sc(CC(F)(F)F)cc34)C2)C1 (stereo not shown) [Compound 214] | > 15 | –
0.19 | 0.86 | 11.9 | CC(C)[C@H](C1CCNCC1)N1CC2(CCN(c3ncnc4sc(CC(F)(F)F)cc34)C2)C1 [Compound 168] | 15 | –
0.45 | 2.1 | > 15 | CC(C)C[C@H](c1cnn(C)c1)N1CC2(CCN(c3ncnc4sc(CC(F)(F)F)cc34)C2)C1 [Compound 247] | > 15 | –
0.67 | 4.6 | – | CC(C)C(N1CC2(CCN(c3ncnc4sc(CC(F)(F)F)cc34)C2)C1)C1(F)CNC1 (stereo not shown) [Compound 269] | > 15 | –

The next lines start with the compound.

SMILES | IC50 (MV-4-11; [1]) [µM] | IC50 (MOLM14; [2]) [µM] | IC50 (K562; [3]) [µM] | IC50 (KG1; [4]) [µM] | further results
CC(C)[C@H](C1CNC1)N1CC2(CCN(c3ncnc4sc(CC(F)(F)F)cc34)C2)C1 [Compound 273] | 0.08 | 0.86 | 10.3 | 12 | IC50 (menin; averaged values over all measurements, read-out: Menin FP assay (IC50 (μM))): 0.021 µM
C[C@@H]1CN[C@H](C(=O)N2CC3(C2)CN(c2ncnc4sc(CC(F)(F)F)cc24)C3)C1 [Compound 82] | 0.38 | 1.8 | > 15 | > 15 | –
N#Cc1cc2cc(CN3CC4(CCN(c5ncnc6sc(CC(F)(F)F)cc56)C4)C3)ccc2[nH]1 [Compound 17] | – | – | – | – | IC50 (menin; [5]): 0.054 µM; IC50 (MV-4-11; MV-4-11 (MLL-AF4), 8 d, absolute IC50 from AUC of confluence, individual measurements (not averaged), read-out: (2) Spheroid assay MV-4-11 (IC50 (μM))): 4.9 µM and 0.76 µM and 0.84 µM; IC50 (MOLM14; Homo sapiens, MOLM-14, 192 h, MOLM14 (MLL-AF9), 8 d, absolute IC50 from AUC of confluence, individual measurements (not averaged), read-out: (2) Spheroid assay MOLM14 (IC50 (μM))): 3.4 µM; IC50 (MOLM14; [6]): 2.3 µM; IC50 (KG1; [7]): 11 µM
Fc1ccc(CN2CC[C@@]3(CCN(c4ncnc5sc(CC(F)(F)F)cc45)C3)C2)cc1 (single isomer, unassigned) [Compound 292] | 0.29 | 1.5 | – | > 15 | –
CC(C)C(CC1CCNCC1)N1CC2(CCN(c3ncnc4sc(CC(F)(F)F)cc34)C2)C1 (stereo not shown) [Compound 315] | 0.32 | 1.5 | – | > 15 | –
CC(C)[C@H](c1cnn(C)c1)N1CC2(CCN(c3ncnc4sc(CC(F)(F)F)cc34)C2)C1 [Compound 274] | 0.36 | 2.3 | > 15 | > 15 | –
CC[C@H](c1cnn(C)c1)N1CC2(CCN(c3ncnc4sc(CC(F)(F)F)cc34)C2)C1 [Compound 220] | 0.65 | 4.7 | > 15 | > 15 | –
FC(F)(F)Cc1cc2c(N3CC[C@]4(CCN(Cc5ccccc5)C4)C3)ncnc2s1 (single isomer, unassigned) [Compound 20b] | – | – | – | – | IC50 (menin; [5]): 0.038 µM; IC50 (MV-4-11; Homo sapiens, MV4-11, 192 h, MV-4-11 (MLL-AF4), 8 d, absolute IC50 from AUC of confluence, individual measurements (not averaged), read-out: (2) Spheroid assay MV-4-11 (IC50 (μM))): 0.51 µM; IC50 (MOLM14; [6]): > 15 µM and 2.5 µM; IC50 (K562; 192 h, K562 (MLL wildtype control), 8 d, absolute IC50 from AUC of confluence, individual measurements (not averaged), read-out: (2) Spheroid assay K562 (IC50 (μM))): > 15 µM; IC50 (KG1; [7]): > 15 µM
CC(C1CCOCC1)N1CC2(CCN(c3ncnc4sc(CC(F)(F)F)cc34)C2)C1 (single isomer, unassigned) [Compound 155] | 0.7 | 1.2 | – | > 15 | –
CC(C)[C@H](C1CN(C)C1)N1CC2(CCN(c3ncnc4sc(CC(F)(F)F)cc34)C2)C1 [Compound 196] | 0.3 | 1.1 | > 15 | > 15 | –
Fc1ccc(CN2CC[C@]3(CCN(c4ncnc5sc(CC(F)(F)F)cc45)C3)C2)cc1 (single isomer, unassigned) [Compound 291] | 0.66 | 1.2 | – | > 15 | –
